From US20230414626A1, “INDUCTION OF FERROPTOSIS FOR CANCER THERAPY” (Memorial Sloan Kettering Cancer Center, priority 2020, published 2023)

Assays:
mTORC1 activity = experiment: Western blot of S6K phosphorylation (pT389 S6K); format: cell-based, human; conditions: RSL3 0.25 μM
Protocol: FIG. 7 A-J. PI3K-AKT-mTOR signaling regulates ferroptosis sensitivity. (A) Cells were treated as indicated. GDC-0941, 2 μM; MK-2206, 2 μM; RSL3, 1 μM; Fer-1, 1 μM. Lipid peroxidation was measured. (B) Cells were treated with indicated conditions. Torin, 1 μM; RSL3, 1 μM for MDA-MB-453 cells and 0.5 μM for BT474 cells; Fer-1, 1 μM. Cell death was measured. (C) Cells were treated with indicated conditions. RSL3, 10 μM for MCF cells and PC-3 cells, 5 μM for T47D cells, 1 μM for HepG2 cells; Torin, 1 μM; CCI-779, 0.5 μM. (D) Cells were treated as indicated. CCI-779, 0.5 μM; Torin, 1 μM; Fer-1, 1 μM. Cell death was staining by propidium iodide (PI) (red) or Sytox Green (green) (scale bar, 100 μm). (E-F) 3D spheroids for MDA-MB-453 cells and MCF7 cells were treated as indicated. CCI-779, 0.5 μM; RSL3, 1 μM for MDA-MB-453 cells and 5 μM for MCF7 cells; Fer-1, 1 μM. Top panels, cell death staining (scale bar, 100 m). Bottom panels, cell viability. (G) MDA-MB-453 cells were treated as indicated for 24 h. RSL3, 1 μM; CCI-779, 0.5 μM; GDC-0941, 2 μM; MK-2206, 2 μM; Dabrafenib, 2 μM; SCH772984, 2 μM; Fer-1, 1 μM. (H) Western blot was performed to detect RPTOR and RICTOR knockdown efficiency. (I) HT1080 cells and MDA-MB-231 cells (both with wild-type PI3K-AKT-mTOR pathway) were treated as indicated. RSL3, 0.1 μM for HT1080 and 0.25 μM for MDA-MB-231; Torin, 1 μM; CCI-779, 0.5 μM; Fer-1, 1 μM. Cell death was measured. (J) Two lines of PI3K-AKT-mTOR pathway wild-type cells (HT1080 and MDA-MB-231) and two lines of cells harboring activating mutation of the pathway (BT474 and MDA-MB-453) were treated as indicated. RSL3, 0.25 μM; Fer-1, 1 μM. Western blot was performed to detect the level of pT389 S6K.
Cell lysates were resolved on SDS-PAGE gels and transferred to a nitrocellulose membranes. The membranes were incubated in 5% skim milk for 1 hour at room temperature and then incubated with primary antibodies diluted in blocking buffer at 4° C. overnight. […]

[1] = tested on: panel of human cancer cell lines with defined genetic mutations; experiment: Sensitivity of cancer cell line panel to RSL3 (cell death, Sytox Green); format: cell-based; conditions: cancer cells carrying PIK3CA activating mutation or PTEN deletion; 24-h treatment
Protocol: FIG. 1 A-D. Oncogenic activation of the PI3K-AKT-mTOR signaling pathway confers resistance to ferroptosis. (A) Genetic background of the analyzed cancer cell lines and their sensitivity to RSL3. (B) Cells were seeded in 96-well plate, 2×10^4 cells per well and incubated overnight. Cell death was induced by 24-h treatment of RSL3 with indicated concentrations. Cell death were measured by Sytox Green staining, as detailed in Methods. (C) Indicated protein components in the PI3K-AKT pathway were detected by western blot in indicated cell types. […] Cell death was measured. […]
To investigate the functional interplay between ferroptosis and signaling pathways frequently mutated in cancer, we analyzed a panel of human cancer cell lines with defined genetic mutations. […]
Cells were seeded in plates at appropriate cell density and incubated overnight at 37° C. containing 5% C02, and then subjected to treatments as described in individual experiments. […] Culture plates were read by Cytation 5 at indicated time points. Percentage of cell death was calculated as Sytox Green-positive cell number over total cell number. For 3D spheroids, cell viability was determined a commercially available cell viability assay (Promega, Madison, WI, USA) following the manufacturer's instructions. […]

MDA-MB-231 cells = experiment: Cell death quantification, PI3K-AKT-mTOR wild-type cells; format: cell-based, human; conditions: MDA-MB-231, wild-type PI3K-AKT-mTOR pathway; RSL3 0.25 μM; Torin 1 μM; CCI-779 0.5 μM
Protocol: (§1) FIG. 7 A-J. PI3K-AKT-mTOR signaling regulates ferroptosis sensitivity. (A) Cells were treated as indicated. GDC-0941, 2 μM; MK-2206, 2 μM; RSL3, 1 μM; Fer-1, 1 μM. Lipid peroxidation was measured. (B) Cells were treated with indicated conditions. Torin, 1 μM; RSL3, 1 μM for MDA-MB-453 cells and 0.5 μM for BT474 cells; Fer-1, 1 μM. Cell death was measured. (C) Cells were treated with indicated conditions. RSL3, 10 μM for MCF cells and PC-3 cells, 5 μM for T47D cells, 1 μM for HepG2 cells; Torin, 1 μM; CCI-779, 0.5 μM. (D) Cells were treated as indicated. CCI-779, 0.5 μM; Torin, 1 μM; Fer-1, 1 μM. Cell death was staining by propidium iodide (PI) (red) or Sytox Green (green) (scale bar, 100 μm). […] Cell death was measured. […]
(§2) Cells were seeded in plates at appropriate cell density and incubated overnight at 37° C. containing 5% C02, and then subjected to treatments as described in individual experiments. […] Culture plates were read by Cytation 5 at indicated time points. Percentage of cell death was calculated as Sytox Green-positive cell number over total cell number. For 3D spheroids, cell viability was determined a commercially available cell viability assay (Promega, Madison, WI, USA) following the manufacturer's instructions. Viability was calculated by normalizing ATP levels of samples to that of negative controls (spheroids in normal full media without treatment).

HT1080 cells = experiment: as above; format: cell-based, human; conditions: HT1080, wild-type PI3K-AKT-mTOR pathway; RSL3 0.1 μM; Torin 1 μM; CCI-779 0.5 μM
Protocol: as §1, §2

MDA-MB-453 cells = experiment: Cell death quantification (Sytox Green), RSL3-induced ferroptosis; format: cell-based, human; conditions: fatty acid 0.5 mM, RSL3 1 μM, CCI-779 0.5 μM
Protocol: (§3) FIG. 1 A-D. Oncogenic activation of the PI3K-AKT-mTOR signaling pathway confers resistance to ferroptosis. (A) Genetic background of the analyzed cancer cell lines and their sensitivity to RSL3. (B) Cells were seeded in 96-well plate, 2×10^4 cells per well and incubated overnight. Cell death was induced by 24-h treatment of RSL3 with indicated concentrations. Cell death were measured by Sytox Green staining, as detailed in Methods. (C) Indicated protein components in the PI3K-AKT pathway were detected by western blot in indicated cell types. (D) Cells were treated with or without PI3K inhibitor GDC-0941 (2 μM), AKT inhibitor MK-2206 (2 μM), RSL3 (1 μM), or ferroptosis inhibitor Ferrostatin-1 (Fer-1, 1 μM) as indicated for 12 h (BT474) or 24 h (MDA-MB-453). Cell death was measured. Indicators for P values (same in all other figures): ****, P≤0.0001; *** P≤0.001; **, P≤0.01; *, P≤0.05; ns, P>0.05
(§4) FIG. 2 A-E. mTORC1, instead of mTORC2, suppresses ferroptosis. (A) MDA-MB-453 and BT474 were treated with CCI-779 (0.5 μM), RSL3 (1 μM for MDA-MB-453 cells and 0.5 μM for BT474 cells), and Fer-1 (1 μM) as indicated. (B) Cells were seeded in 6-well plate, 4×10^5 cells per well and incubated overnight. MDA-MB-453 and BT474 cells were treated as indicated. CCI-779, 0.5 μM; RSL3, 1 μM for MDA-MB-453 cells and 0.5 μM for BT474 cells; Fer-1, 1 μM. Cells were stained with 5 μM C1I-BODIPY followed by flow cytometry after 8 h-treatment. (C) 3D spheroids were treated as indicated. CCI-779, 0.5 μM; RSL3, 0.5 μM; Fer-1, 1 μM. Top panel, dead cells were stained by SYTOX Green (scale bar, 100 μm). Bottom panel, cell viability was assayed by measuring cellular ATP levels. (D) Cells expressing shRNAs targeting RPTOR or RICTOR were treated as indicated. CCI-779, 0.5 μM; RSL3, 0.5 μM; Fer-1, 1 μM. (E) Lipid peroxidation of samples as in panel D were measured.
(§5) FIG. 5 A-H. SREBP1 protects cells from ferroptosis through SCD1 activity. (A) The expression of SREBP1, and its targets SCD1, FASN, and ACACA, in control and SREBF1-sgRNA cells were detected by western blot. (B) The mRNA level of SREPF1 and its targets gene SCD were measured by RT-PCR. (C) Cells were pretreated with or without 5 μM CAY10566 overnight, and then subjected to the indicated treatments. RSL3, 0.5 μM for BT474 cells and 1 μM for MDA-MB-453 cells; CAY10566, 5 μM; Fer-1, 1 μM. (D) Cells expressing control or SCD-sgRNA were treated as indicated. RSL3, 1 μM for MDA-MB-453 cells and 0.5 μM for BT474 cells; Fer-1, 1 μM. (E) 3D spheroids derived from BT474 cells harboring control or SCD-sgRNA were treated as indicated. RSL3, 0.5 μM; CCI-779, 0.5 μM; Fer-1, 1 μM. Left, cell death staining (scale bar, 100 m). Right, cell viability. (F) SCD1 was overexpressed in BT474 cells and determined by western blot. Cells were treated as indicated. RSL3, 0.5 μM; CCI-779, 0.5 μM. (G) 3D spheroids derived from BT474 cells with control or SCD1 overexpression were treated as indicated. RSL3, 0.5 μM; CCI-779, 0.5 μM; Fer-1, 1 μM. Left, cell death staining (scale bar, 100 m). Right, cell viability. (H) Cells were treated as indicated. RSL3, 0.5 μM for BT474 and 1 μM for MDA-MB-453; CCI-779, 0.5 μM; Oleic acid (OA), 0.5 mM; stearic acid (SA), 0.5 mM.
(§6) FIG. 7 A-J. PI3K-AKT-mTOR signaling regulates ferroptosis sensitivity. (A) Cells were treated as indicated. GDC-0941, 2 μM; MK-2206, 2 μM; RSL3, 1 μM; Fer-1, 1 μM. Lipid peroxidation was measured. (B) Cells were treated with indicated conditions. Torin, 1 μM; RSL3, 1 μM for MDA-MB-453 cells and 0.5 μM for BT474 cells; Fer-1, 1 μM. Cell death was measured. (C) Cells were treated with indicated conditions. RSL3, 10 μM for MCF cells and PC-3 cells, 5 μM for T47D cells, 1 μM for HepG2 cells; Torin, 1 μM; CCI-779, 0.5 μM. (D) Cells were treated as indicated. CCI-779, 0.5 μM; Torin, 1 μM; Fer-1, 1 μM. Cell death was staining by propidium iodide (PI) (red) or Sytox Green (green) (scale bar, 100 μm). (E-F) 3D spheroids for MDA-MB-453 cells and MCF7 cells were treated as indicated. […]

BT474 cells = experiment: as above; format: cell-based, human; conditions: fatty acid 0.5 mM, RSL3 0.5 μM, CCI-779 0.5 μM
Protocol: as §3, §4, §5, §6

[2] = wild-type cells (HT1080 and MDA-MB-231), Fer-1 1 μM

| SMILES | mTORC1 activity as measured by S6K phosphorylation (mTORC1 activity; cells harboring pathway mutation (BT474 and MDA-MB-453)) | mTORC1 activity as measured by S6K phosphorylation (mTORC1 activity; [2]) | sensitivity to ferroptosis induction by RSL3 [1] | ferroptosis induction (cell death) (MDA-MB-231 cells) | ferroptosis induction (cell death) (HT1080 cells) | ferroptosis resistance upon treatment of CCI-779 plus RSL3 (fatty acid supplementation) (MDA-MB-453 cells) | ferroptosis resistance upon treatment of CCI-779 plus RSL3 (fatty acid supplementation) (BT474 cells) |
| --- | --- | --- | --- | --- | --- | --- | --- |
| COC(=O)c1ccc([C@@H]2c3[nH]c4ccccc4c3C[C@@H](C(=O)OC)N2C(=O)CCl)cc1 [RSL3] | retained active mTORC1 | inhibited | more resistant | sufficient to induce ferroptosis | sufficient to induce ferroptosis |  |  |
| CCOC(=O)c1ccc(NC2CCCCC2)c(N)c1 [ferrostatin-1] |  | prevented RSL3-triggered inactivation of mTORC1 activity |  |  |  |  |  |
| CCCCCCCC/C=C\CCCCCCCC(=O)O [oleate acid] |  |  |  |  |  | resulted in ferroptosis resistance | resulted in ferroptosis resistance |
| CCCCCC/C=C\CCCCCCCC(=O)O [palmitoleic acid] |  |  |  |  |  | resulted in ferroptosis resistance | resulted in ferroptosis resistance |
